# Reference: patent publication US6458781B1, “Substituted diarylalkyl amides as calcium channel antagonists” (priority 1998, dated 2002)
# Where two headings read alike, the source gives them in different places.
# How the values were obtained:
# [1] = target: T1, N-type calcium channels in IMR-32 cells (Homo sapiens, UniProt Q00975); assay: N-type Ca2+ channel blocking potency in IMR-32 cells using Indo-1; type: cell-based; details: for inhibition at 1 µM / inhibition at 10 µM: IMR-32, IMR-32 cells; for inhibition at 1 µM: read-out: IMR32 % blockage at 1 μM; for inhibition at 10 µM: read-out: IMR32 % blockage at 10 μM; for IC50: IMR-32 cells
# T1 construct: host or cells: IMR-32 cells differentiated with dibutyryl cAMP and bromodeoxyuridine
# Description: Measurement of N-type Ca^2+ Channel Blocking Potencies of Compounds in IMR-32 Cells Using the Fluorescent Ca^2+ Indicator Indo-1
# IMR-32 cells are a human tumoral cell line of neural origin. […] Calcium flux into these cells may be induced by stimulation with elevated potassium concentrations. The L-channel component of calcium flux may be blocked by adding 5 μM nitrendipine. The remaining component of calcium entry into the IMR-32 cells is due to calcium flux through N-type calcium channels. Intracellular calcium concentrations are measured using the fluorescent calcium indicator Indo-1. The effect of drug concentration on calcium uptake is studied.
# The IMR-32 cell line was obtained from the American Type Culture Collection (Rockville, Md.). Cells were grown in Eagle's Minimum Essential Medium with Earle's salts supplemented with 10% fetal bovine serum, 2 mM L-Gln and antibiotic/antimycotic mixture (Gibco). At approximately 80% confluency, differentiation was induced by the addition of 1 mM dibutyryl cAMP and 2.5 μM bromodeoxyuridine to the medium. After 7 to 13 days of differentiation, cells were detached using 0.5 mM EDTA and loaded with 5 μM Indo-1 acetoxymethyl ester (Molecular Probes, Eugene, Oreg.) at 30° C. for 45 minutes. Loaded cells were washed twice, resuspended (˜10^7 cells/mL) in assay buffer (10 mM HEPES/Tris pH 7.4 in Hank's Balanced Salt Solution without bicarbonate or phenol red containing 0.5% bovine serum albumin) and kept on ice until use. Fluorescence measurements were carried out in a Photon Technology International (PTI, South Brunswick, N.J.) Model RF-F3004 spectrofluorometer with dual emission monochromators using excitation at 350 nm and emission at 400 and 490 nm. The instrument was equipped with a thermostated cuvette holder with stirring capabilities as well as with a computer-controlled pump which allowed for reagent addition during measurement. Instrument control and data collection was done by PTI's OSCAR software running on an IBM compatible computer. Different concentrations of the test compounds (60 μL in dimethyl sulfoxide) were added to 5.94 mL of assay buffer containing approximately 3×10^6 loaded cells, and 5 μM Nitrendipine (in 30 μL EtOH) to block L-type Ca^2+ channels. Samples were incubated for 10 minutes at 30° C. and the aliquot into three 10×10 mm disposable acrylic cuvettes. Emission signals at 400 and 490 nm were acquired from each cuvette at 30° C. for 50 seconds. At 20 seconds after the start of reading, cells were depolarized by the addition of 160 μL of stimulation solution (1 M KCl, 68 mM CaCl2) to the cuvette via the computer-controlled pump. Ratio of dual emission signals (400/490 nm), which is proportional to intracellular Ca^2+ concentration, was plotted against time, and the difference between maximal response after stimulation and basal value (before stimulation) was determined. Values obtained in this way were plotted as a function of drug concentration. IC50 values of test compounds were calculated by fitting a four-parameter logistic function to the data using the least squares method.
# [2] = target: T2, L-type calcium channels in A10 cells (Rattus norvegicus, UniProt P22002); assay: L-type Ca2+ channel blocking potency in A10 cells (FLIPR); type: cell-based; details: read-out: FLPA10 IC50
# T2 construct: which endogenously expresses L-type calcium channels; host or cells: A10 rat embryonic thoracic aorta smooth muscle cells
# T2 sequence (P22002 whole entry): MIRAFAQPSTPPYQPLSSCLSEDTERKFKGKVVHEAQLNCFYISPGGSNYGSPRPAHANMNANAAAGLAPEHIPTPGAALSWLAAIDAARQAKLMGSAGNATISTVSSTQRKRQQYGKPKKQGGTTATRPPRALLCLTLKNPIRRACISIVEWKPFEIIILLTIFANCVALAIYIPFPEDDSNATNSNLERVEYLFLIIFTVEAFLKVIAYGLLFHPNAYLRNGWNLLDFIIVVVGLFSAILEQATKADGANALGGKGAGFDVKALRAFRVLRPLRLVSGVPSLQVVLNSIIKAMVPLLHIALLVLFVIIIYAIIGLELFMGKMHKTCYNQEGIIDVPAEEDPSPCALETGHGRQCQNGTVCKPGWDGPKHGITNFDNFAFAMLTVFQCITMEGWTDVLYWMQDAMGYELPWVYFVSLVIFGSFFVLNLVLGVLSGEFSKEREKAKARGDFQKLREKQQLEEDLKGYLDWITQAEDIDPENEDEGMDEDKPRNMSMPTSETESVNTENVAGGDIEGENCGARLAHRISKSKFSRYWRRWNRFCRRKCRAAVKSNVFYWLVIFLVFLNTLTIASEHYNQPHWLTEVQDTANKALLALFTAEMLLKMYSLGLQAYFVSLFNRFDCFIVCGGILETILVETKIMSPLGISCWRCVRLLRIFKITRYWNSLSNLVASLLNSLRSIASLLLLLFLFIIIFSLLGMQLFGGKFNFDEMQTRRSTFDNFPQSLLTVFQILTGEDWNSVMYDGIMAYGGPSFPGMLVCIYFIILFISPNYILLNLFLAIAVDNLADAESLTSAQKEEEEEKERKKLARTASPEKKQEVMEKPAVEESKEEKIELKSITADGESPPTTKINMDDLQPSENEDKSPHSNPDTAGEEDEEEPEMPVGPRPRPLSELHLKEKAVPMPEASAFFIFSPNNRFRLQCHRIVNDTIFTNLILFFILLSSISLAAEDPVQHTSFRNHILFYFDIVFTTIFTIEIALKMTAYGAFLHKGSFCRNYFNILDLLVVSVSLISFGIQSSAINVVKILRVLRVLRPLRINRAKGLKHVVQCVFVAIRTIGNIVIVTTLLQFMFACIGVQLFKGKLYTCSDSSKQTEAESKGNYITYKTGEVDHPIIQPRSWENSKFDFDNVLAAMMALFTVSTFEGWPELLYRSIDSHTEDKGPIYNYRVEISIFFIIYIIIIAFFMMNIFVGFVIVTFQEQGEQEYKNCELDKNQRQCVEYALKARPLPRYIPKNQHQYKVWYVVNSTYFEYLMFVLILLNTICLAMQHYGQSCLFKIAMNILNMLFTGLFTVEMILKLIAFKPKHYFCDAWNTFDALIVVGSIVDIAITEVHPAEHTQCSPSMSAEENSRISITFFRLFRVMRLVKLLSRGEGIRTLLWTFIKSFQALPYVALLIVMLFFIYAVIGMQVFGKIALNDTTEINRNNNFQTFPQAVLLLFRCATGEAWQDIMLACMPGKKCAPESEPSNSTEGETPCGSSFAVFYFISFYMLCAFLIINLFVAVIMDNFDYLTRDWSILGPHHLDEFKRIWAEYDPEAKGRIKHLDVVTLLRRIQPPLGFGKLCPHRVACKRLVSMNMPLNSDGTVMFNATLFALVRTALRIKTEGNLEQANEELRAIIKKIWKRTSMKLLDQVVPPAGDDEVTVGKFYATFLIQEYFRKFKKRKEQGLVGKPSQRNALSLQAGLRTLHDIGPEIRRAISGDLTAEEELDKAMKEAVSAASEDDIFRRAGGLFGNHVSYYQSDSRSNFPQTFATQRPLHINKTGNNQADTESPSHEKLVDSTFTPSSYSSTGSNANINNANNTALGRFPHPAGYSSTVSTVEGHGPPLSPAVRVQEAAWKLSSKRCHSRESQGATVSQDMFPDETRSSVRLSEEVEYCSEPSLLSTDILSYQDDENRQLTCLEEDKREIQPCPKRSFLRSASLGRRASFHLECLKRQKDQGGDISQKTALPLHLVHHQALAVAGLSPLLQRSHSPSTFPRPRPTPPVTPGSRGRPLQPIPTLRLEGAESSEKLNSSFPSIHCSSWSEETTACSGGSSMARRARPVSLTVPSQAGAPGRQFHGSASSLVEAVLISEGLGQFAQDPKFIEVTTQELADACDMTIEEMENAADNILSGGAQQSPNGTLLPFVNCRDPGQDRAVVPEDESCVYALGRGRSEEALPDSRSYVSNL
# T2 sequence (P54290 25-944 partner limits assumed): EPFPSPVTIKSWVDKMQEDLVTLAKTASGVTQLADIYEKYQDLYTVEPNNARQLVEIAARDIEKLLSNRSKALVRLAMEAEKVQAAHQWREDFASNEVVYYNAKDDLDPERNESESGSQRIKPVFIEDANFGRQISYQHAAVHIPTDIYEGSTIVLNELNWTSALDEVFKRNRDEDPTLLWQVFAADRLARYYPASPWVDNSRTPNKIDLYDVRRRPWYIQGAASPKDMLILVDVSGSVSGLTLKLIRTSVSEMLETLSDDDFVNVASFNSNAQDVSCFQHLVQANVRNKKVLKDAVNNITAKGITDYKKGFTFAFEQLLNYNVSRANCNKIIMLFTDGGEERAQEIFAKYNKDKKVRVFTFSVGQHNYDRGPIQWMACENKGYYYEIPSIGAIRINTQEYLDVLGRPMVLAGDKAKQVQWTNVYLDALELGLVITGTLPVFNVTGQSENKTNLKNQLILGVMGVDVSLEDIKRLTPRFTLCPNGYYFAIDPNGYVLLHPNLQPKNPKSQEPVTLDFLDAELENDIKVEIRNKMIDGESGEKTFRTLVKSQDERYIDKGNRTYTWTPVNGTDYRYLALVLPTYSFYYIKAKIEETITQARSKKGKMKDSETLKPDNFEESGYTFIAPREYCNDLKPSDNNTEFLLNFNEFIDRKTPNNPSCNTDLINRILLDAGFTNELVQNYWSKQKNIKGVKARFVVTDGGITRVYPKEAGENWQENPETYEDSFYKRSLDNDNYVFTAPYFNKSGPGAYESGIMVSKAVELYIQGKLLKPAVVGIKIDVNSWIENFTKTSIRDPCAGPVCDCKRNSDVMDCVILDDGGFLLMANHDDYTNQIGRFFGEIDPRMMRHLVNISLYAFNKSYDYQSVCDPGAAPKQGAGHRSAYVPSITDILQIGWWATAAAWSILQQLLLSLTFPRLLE
# T2 sequence (P54290 945-1091 partner limits assumed): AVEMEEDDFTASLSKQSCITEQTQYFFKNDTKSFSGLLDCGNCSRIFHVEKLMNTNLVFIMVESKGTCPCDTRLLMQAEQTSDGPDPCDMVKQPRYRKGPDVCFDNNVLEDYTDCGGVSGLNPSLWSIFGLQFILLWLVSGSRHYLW
# T2 sequence (P54287 whole entry partner): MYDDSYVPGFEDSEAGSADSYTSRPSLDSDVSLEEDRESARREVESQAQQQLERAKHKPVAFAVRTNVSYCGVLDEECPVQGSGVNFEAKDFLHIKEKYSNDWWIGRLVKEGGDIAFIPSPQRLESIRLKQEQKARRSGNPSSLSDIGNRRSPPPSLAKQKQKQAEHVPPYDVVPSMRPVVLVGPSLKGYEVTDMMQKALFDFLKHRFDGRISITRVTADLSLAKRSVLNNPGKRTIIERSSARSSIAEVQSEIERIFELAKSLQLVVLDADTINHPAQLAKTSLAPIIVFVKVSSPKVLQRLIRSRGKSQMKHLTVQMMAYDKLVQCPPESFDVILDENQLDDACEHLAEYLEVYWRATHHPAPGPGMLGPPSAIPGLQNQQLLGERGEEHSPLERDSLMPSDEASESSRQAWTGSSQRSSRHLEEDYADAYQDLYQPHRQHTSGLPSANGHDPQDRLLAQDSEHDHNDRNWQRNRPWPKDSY
# Description: Measurement of L-type Ca^2+ Channel Blocking Potencies of Compounds in A10 Cells
# Calcium flux through voltage-sensitive calcium channels was assessed by time-resolved monitoring of the fluorescence of pre-loaded calcium-sensitive dyes using FLIPR, a fluorescent image plate reader (Molecular Devices Co.). The A10 smooth muscle cell line derived from embryonic thoracic aorta of the DBIX rat (ATCC, CRL-1476) which endogenously expresses L-type calcium channels. The growth media for A10 cells was Ham's F12/DME high glucose (Irvine Scientific, 9052), supplemented with 20% fetal bovine serum (HyClone Labs, A-1115-L), and 1% each of L-glutamine and antibiotic-antimycotic (same source as above).
# Cells were grown to confluency and replated on black-sided 96-well plates (Costar, 3603) for use in FLIPR. Two days after replating, growth media was removed and cells were loaded at 37° C. with 100 μL media containing 1 μM Oregon Green 488 Bapta-1 dye (Molecular Probes, O-6807) for 1 to 3 hours. The dye-containing media was then washed away with buffer (composition in mM: 1.25 CaCl2, 1.2 MgSO4, 11 glucose, 10 HEPES, 3.0 KCl, 137.0 NaCl, pH 7.4 with Tris base) in a Denley Cellwash (Labsystems, CW018B). The residual buffer volume was adjusted to 50 μL. A 5 minute drug-pre-incubation period at 35° C. was initiated when 50 μL of drug-containing buffer was pipetted into the cell plate with the 96-well pipettor integrated in the FLIPR apparatus. Fluorescent counts were monitored at 20 second intervals for 360 seconds, beginning 60 seconds prior to the delivery of drug-containing buffer. Following drug addition, 100 μL aliquots of a high K^+, depolarizing stimulus (composition in mM: 1.25 CaCl2, 1.2 MgSO4, 11 glucose, 10 HEPES, 140.0 KCl, pH 7.4 with Tris base) were added to each well, and fluorescence was monitored at 1 second intervals for 120 seconds beginning 10 seconds prior to the stimulus addition. CCD camera exposure time was 0.4 seconds, laser excitation was at 488 nm with a power of 0.2-0.5W, and a 510 to 560 nm bandpass interference filter preceded the camera.
# Data was analyzed as a summation of fluorescent counts above basal during the stimulation period (an approximation of area under the curve), after normalizing the data with a spatial uniformity correction (for variations in laser illumination and cell density) and a negative control correction (zero calcium increase defined as the fluorescence reading in the presence of saturating pharmacologic block of the respective calcium channel). Drug effects were expressed as percent inhibition of fluorescence from an average of 8 K^+-stimulated wells which were pre-treated in the drug incubation period with buffer only. In the A10 cells, the pharmacologic agent used to define zero calcium influx was nitrendipine (RBI, N-144) at a final concentration of 1.0×10^−6 M.
# [3] = estimated from two data points, read-out: IMR32 IC50 (estimated IC50 values based on two data points)
SMILES,inhibition at 1 µM [1] [%],inhibition at 10 µM [1] [%],melting point [°C],IC50 [2] [nM],"IC50 [1, 3] [nM]","IC50 ([1]; 5 μM nitrendipine present, read-out: IMR32 IC50) [nM]"
"CC(C)C[C@H](NC(=O)N1CCN(c2ccccc2)CC1)C(=O)NCCCC(c1ccc(F)cc1)c1ccc(F)cc1 [Example 17, (S)-4-Phenyl-piperazine-1-carboxylic acid {1-[4,4-bis-(4-fluoro-phenyl)-butylcarbamoyl]-3-methyl-butyl}-amide]",–,–,138 to 141,74,2000,–
"CC(C)C[C@@H](C(=O)NCCCC(c1ccc(F)cc1)c1ccc(F)cc1)N1CCCCC1 [Example 22, (S)-4-Methyl-2-piperidin-1-yl-pentanoic acid [4,4-bis-(4-fluoro-phenyl)-butyl]-amide]",49,94,52 to 70,160,–,–
"CC(C)C[C@@H](C(=O)NCCC(c1ccccc1)c1ccccc1)N1CCCCC1.Cl [Example 24, (S)-4-Methyl-2-piperidin-1-yl-pentanoic acid (3,3-diphenyl-propyl)-amide monohydrochloride]",35,89,58 to 65,1500,–,–
"CC(C)C[C@H](NC(=O)N1CCN(C)CC1)C(=O)NCCCC(c1ccc(F)cc1)c1ccc(F)cc1 [Example 29, (S)-4-Methyl-piperazine-1-carboxylic acid {1-[4,4-bis-(4-fluoro-phenyl)-butylcarbamoyl]-3-methyl-butyl)-amide]",22,82,73 to 91,1200,–,–
"O=C(CNC(=O)N1CCCCCC1)N1CCN(C(c2ccc(F)cc2)c2ccc(F)cc2)CC1 [Example 32, (S)-Azepane-1-carboxylic acid (2-{4-[bis-(4-fluoro-phenyl)-methyl]-piperazin-1-yl}-2-oxo-ethyl)-amide]",–,–,66 to 86,1800,–,470
"CC(C)C[C@@H](C(=O)N1CCN(C(c2ccc(F)cc2)c2ccc(F)cc2)CC1)N(C)C1CCOCC1 [Example 41, (S)-1-{4-[Bis-(4-fluoro-phenyl)-methyl]-piperazin-1-yl}-4-methyl-2-[methyl-(tetrahydro-pyran-4-yl)-amino]-pentan-1-one]",–,–,56 to 65,780,2300,–
"CC(C)C[C@@H](C(=O)N1CCN(C(c2ccc(F)cc2)c2ccc(F)cc2)CC1)N1CCOCC1 [Example 42, (S)-1-{4-[Bis-(4-fluoro-phenyl)-methyl]-piperazin-1-yl}-4-methyl-2-morpholin-4-yl-pentan-1-one]",–,–,55 to 63,2000,3400,–
"CCC(C)[C@H](NC(=O)N1CCCCCC1)C(=O)N1CCN(C(c2ccc(F)cc2)c2ccc(F)cc2)CC1 (stereo partly drawn) [Example 43, (S)-Azepane-1-carboxylic acid (1-{4-[bis-(4-fluoro-phenyl)-methyl]-piperazine-1-carbonyl}-2-methyl-butyl)-amide]",–,–,64 to 77,440,470,–
"CC(C)C[C@H](NC(=O)N1CCN(c2ccccc2)CC1)C(=O)N1CCN(C(c2ccc(F)cc2)c2ccc(F)cc2)CC1 [Example 44, (S)-4-Phenyl-piperazine-1-carboxylic acid (1-{4-[bis-(4-fluoro-phenyl)-methyl]-piperazine-1-carbonyl}-3-methyl-butyl)-amide]",–,–,83 to 91,300,410,–
"CC(C)C[C@H](NC(=O)N1CCCCCC1)C(=O)N1CCN(C2c3ccccc3-c3ccccc32)CC1 [Example 45, (S)-Azepane-1-carboxylic acid {1-[4-(9H-fluoren-9-yl)-piperazine-1-carbonyl]-3-methyl-butyl}-amide]",–,–,63 to 73,930,1500,–
"CC(C)C[C@H](NCc1ccc(OC(C)(C)C)cc1)C(=O)N1CCN(C(c2ccc(F)cc2)c2ccc(F)cc2)CC1 [Example 64, (S)-1-{4-[Bis-(4-fluoro-phenyl)-methyl]-piperazin-1-yl}-2-(4-tert-butoxy-benzylamino)-4-methyl-pentan-1-one]",–,–,56 to 61,89,–,–

# More lines, now with the values ahead:
inhibition at 1 µM [1] [%],inhibition at 10 µM [1] [%],melting point [°C],IC50 [2] [nM],"IC50 [1, 3] [nM]","IC50 ([1]; 5 μM nitrendipine present, read-out: IMR32 IC50) [nM]",SMILES
13,54,65 to 78,1700,–,–,"CC(C)CC(NC(=O)N1CCN(C)CC1)C(=O)N1CCN(C(c2ccc(F)cc2)c2ccc(F)cc2)CC1 (stereo in doubt) [Example 47, (S)-4-Methyl-piperazine-1-carboxylic acid (1-{4-[bis-(4-fluoro-phenyl)-methyl]-piperazine-1-carbonyl}-3-methyl-butyl)-amide]"
–,–,50 to 60,270,610,–,"CCC(C)[C@H](NC(=O)N1CCCCCC1)C(=O)NCCCC(c1ccc(F)cc1)c1ccc(F)cc1 (stereo partly drawn) [Example 16, (S)-Azepane-1-carboxylic acid {1-[4,4-bis-(4-fluoro-phenyl)-butylcarbamoyl]-2-methyl-butyl}-amide]"
–,–,32 to 50,240,840,–,"CC(C)[C@H](NC(=O)N1CCCCCC1)C(=O)NCCCC(c1ccc(F)cc1)c1ccc(F)cc1 [Example 26, (S)-Azepane-1-carboxylic acid {1-[4,4-bis-(4-fluoro-phenyl)-butylcarbamoyl]-2-methyl-propyl}-amide]"
39,100,29 to 49,1300,–,–,"C[C@H](NC(=O)N1CCCCCC1)C(=O)NCCCC(c1ccc(F)cc1)c1ccc(F)cc1 [Example 30, (S)-Azepane-1-carboxylic acid {1-[4,4-bis-(4-fluoro-phenyl)-butylcarbamoyl]-ethyl}-amide]"
–,–,57 to 62,> 3000,–,–,"CC(C)C[C@H](NCc1ccc(C(C)(C)C)cc1)C(=O)N1CCN(C(c2ccc(F)cc2)c2ccc(F)cc2)CC1 [Example 58, (S)-1-{4-[Bis-(4-fluoro-phenyl)-methyl]-piperazin-1-yl}-2-(4-tert-butyl-benzylamino)-4-methyl-pentan-1-one]"
